# Source: US8003096B2, “Means and methods for the recruitment and identification of stem cells” (Vlaams Interuniversitair Instituut voor Biotechnologie VZW, priority 2003, dated 2011)
# Assays:
# [1] = format: in vivo, mouse
# Protocol: To study the role of the plasminogen proteinase system with its plasminogen activators tPA and uPA, and active plasmin in stem/progenitor cell mobilization, mice lacking plasminogen (Plg^−/−), tPA (tPA^−/−), uPA (uPA^−/−) and both activators (tPA^−/−uPA^−/−) were used.^(17, 18) Age- and sex-matched mice were kept in IVC cages. Mobilization was induced either via a single sublethal injection i.v. of the myeloablative agent 5-fluorouracil (5-FU, 200-250 mg/kg), or via administration s.c. of recombinant human G-CSF (Filgrastim, Amgen, 200 μg/kg/d) for five consecutive days.^(12) Peripheral blood (PB) samples were obtained by retro-orbital bleeding under light anesthesia. Full blood counts were determined on the Abbott Cell Dyn 1300 hemocytometer. The number of mobilized hematopoietic progenitor cells (HPCs) in the circulation was determined via methylcellulose-based CFU-C assays (MethoCult, Stem Cell Technologies), per 10^5 peripheral blood mononuclear cells (PB MNCs).^(12) The number of mobilized hematopoietic stem cells (HSCs) in the circulation was quantified via splenic colony-forming assays (CFU-S), and evaluated for long-term engraftment via transplantation into lethally irradiated syngeneic wild-type recipients (9.5 Gy total body irradiation). […]
# Wild-type mice and mice lacking Plg, both tPA and uPA, tPA, uPA, uPAR, PAI-1, α2AP, MMP-2 (kind gift from S. Itohara), MMP-3 (kind gift from J. Mudgett), MMP-9, MMP-12 (kind gift from S. Shapiro), and TIMP-1 (obtained by courtesy of P. Soloway) were used, and housed in barrier cages (individually ventilated) (Heymans et al. (1999), Nat. Med. 5:1135-42). […] Peripheral blood was repetitively sampled by retro-orbital puncture under light anesthesia, and full blood counts (EDTA buffered) were determined on a hemocytometer (Abbott Cell Dyn 1300). Peripheral blood smears were stained using Giemsa-May-Grunwald and at least 200 cells were analyzed. […]
# [2] = system: fibronectin, collagen IV; test: Immunostaining of BM sections for ECM proteins; format: in vivo, mouse
# Protocol: Mice were killed via cervical dislocation, femurs were removed, fixed in 2% paraformaldehyde in PBS for 24 hours, and decalcified in EDTA solution. After dehydration and paraffin embedding, 10 μm transverse sections were prepared on Superfrost Plus slides. Immunohistochemistry was performed using antibodies against VWF (DAKO), MMP-9 (Oncogene), tPA, uPA, MMP-2, MMP-3, MMP-12 (Santa Cruz), laminin, fibronectin (Sigma), and collagen IV (kind gift from A. Noel). Analysis was performed on a Zeiss Axioplan2, a 3CCD video camera (DXC-93OP, Sony), and KS300 software.
# [3] = system: BM cells; test: FACS analysis of BM cells after 5-FU; format: in vivo, mouse; settings: for Sca-1+ progenitors in S-phase of the cell cycle: 5-FU treatment; for CD3ε+ lymphoid cell counts / Gr1+CD11b+ myeloid cell counts: day 7 after 5-FU; for BM HSCs (Sca-1+cKit+ cells) / HPCs (Sca-1+ cells): seven days after 5-FU
# Text: Murine BM cells were filtered through a 40 μm nylon mesh (Falcon) and stained with labeled anti-mouse antibodies against CD11b, Gr-1, CD3ε, CD19, Sca-1, α5β1, (BD Biosciences), cKit (eBioscience). Anti-mouse α4β1, antibodies were generated from hybridoma (PS/2; ATCC), and detected using a secondary labeled anti-rat antibody (Caltag). Mouse annexin II was detected using a goat anti-annexin II antibody (Santa Cruz), and a secondary labeled rabbit anti-goat antibody (Caltag). Mouse uPAR was detected using a rabbit anti-mouse uPAR antibody (Sier et al. (2004), Thromb. Haemost. 91:403-11), and a secondary labeled goat anti-rabbit antibody (BD Biosciences). Control stainings included matched isotype antibodies and pre-immune antibodies. Non-specific binding was prevented by addition of mouse serum (DAKO), as alternative for Fc-receptor block. For cell cycle analysis, BM cells were stained with Sca-1-FITC and treated with PI/RNAse (BD Biosciences), as previously described (Heissig et al. (2002), Cell 109:625-37). From EDTA-anti-coagulated human blood, full blood counts were performed, MNCs were prepared using Lymphoprep (Axis-Shield), counted, and 1×10^6 PB MNCs were stained with anti-human CD34 (Tebu Bio).
compound,measurement,setting,value
"O=c1[nH]cc(F)c(=O)[nH]1 [5-FU, 5-fluorouracil]",mice that died,"[1]; Plg−/− or tPA−/−uPA−/− mice, sublethal dose",up to 75%
same,mice that did not survive,"[1]; WT mice, sublethal dose",10%
same,"time to recovery from drop in WBC, RBC and platelet counts","[1]; mouse, in vivo",2.5-3 weeks
same,collagen-IV+ area as % of total area,[2]; 5-FU-treated WT mice,21±1%
same,fibronectin+ area as % of total area,[2]; 5-FU-treated WT mice,9±1%
same,collagen-IV+ area as % of total area,[2]; 5-FU-treated uPA−/− mice,26±1%
same,fibronectin+ area as % of total area,[2]; 5-FU-treated uPA−/− mice,14±2%
same,Sca-1+ progenitors in S-phase of the cell cycle,[3]; Plg−/− mice,1.2±0.6 ×10^4 per femur
same,CD3ε+ lymphoid cell counts,[3]; Plg−/− mice,67±31 ×104 per femur
same,Gr1+CD11b+ myeloid cell counts,[3]; Plg−/− mice,3±2 ×10^4 per femur
same,BM HSCs (Sca-1+cKit+ cells),[3]; Plg−/− mice,5±1 ×10^4 per femur
same,HPCs (Sca-1+ cells),[3]; Plg−/− mice,48±22 ×10^4 per femur
same,Sca-1+ progenitors in S-phase of the cell cycle,[3]; WT mice,8.4±0.8 ×10^4 per femur
same,CD3ε+ lymphoid cell counts,[3]; WT mice,438±122 ×104 per femur
same,Gr1+CD11b+ myeloid cell counts,[3]; WT mice,29±13 ×10^4 per femur
same,BM HSCs (Sca-1+cKit+ cells),[3]; WT mice,42±9 ×10^4 per femur
same,HPCs (Sca-1+ cells),[3]; WT mice,206±20 ×10^4 per femur
